According to PubChem BioAssay (NCI):
“And” between values parts separate entries of the source, which are not always exact repeats. Identical values can stand only once.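 These data come from cells grown in 96-well plates and exposed to compound for 48 hours at five concentrations. Abbreviation: GI50, concentration required for 50% inhibition of growth. TGI is the concentration that stops growth completely.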

Experiments:
Assay in all cases: growth of human tumour cells (NCI), 48 h
[1] = system: BT-549 breast
[2] = system: 786-0 renal
[3] = system: CCRF-CEM leukemia
[4] = system: OVCAR-4 ovarian
[5] = system: UO-31 renal
[6] = system: A549 NSCLC
[7] = system: SK-MEL-5 melanoma
[8] = system: MDA-MB-435
[9] = system: SNB-19 CNS
[10] = system: HL-60(TB) leukemia

Row | Compound | GI50 [1] | TGI [1] | GI50 [2] [µM] | TGI [2] | GI50 [3] | TGI [3] | GI50 [4] [µM] | TGI [4] | GI50 [5] | TGI [5] | GI50 [6] | TGI [6] [µM] | GI50 [7] [µM] | TGI [7] | GI50 [8] [µM] | TGI [8] | GI50 [9] | TGI [9] [µM] | GI50 [10] | TGI [10] [µM]
1 | Cc1cc(O)c(C2=NN(c3ccc(S(N)(=O)=O)cc3)C(/C=C/c3ccccc3)C2)cc1Cl (stereo not drawn) | 6.12 µM | 21.3 µM | 4.09 | 12.5 µM | 17.7 µM | 50 µM | 3.74 | 18.9 µM | 15.2 µM | 34.9 µM | 11 µM | 30.8 | 4.23 | 16.4 µM | 8.87 | 24 µM | 7.84 µM | 19.9 | 68.3 µM | > 100
2 | CN1CCN(c2nc(-c3csc(-c4cccs4)n3)cc3ccccc23)CC1 | 1.82 µM | 3.94 µM | 1.64 | 3.15 µM | 2 µM | 4.46 µM | 2.18 | 4.73 µM | 1.66 µM | 3.17 µM | 1.76 µM | 3.55 | 1.71 | 3.12 µM | 1.73 | 3.24 µM | 2.14 µM | 5.36 | 2.17 µM | 4.71
3 | COc1ccc(C(=O)c2sc3nc(-c4cccs4)ccc3c2N)cc1OC | 3.82 µM | > 100 µM | 62.4 | > 100 µM | 4.53 µM | > 100 µM | 6.75 | > 100 µM | 4.56 µM | > 100 µM | 4.71 µM | > 100 | 2.01 | 5.28 µM | 1.43 | 4.76 µM | > 100 µM | > 100 | 4.14 µM | > 100
4 | CC(=O)OC1=CC2(OC(C)=O)CC(C)(C)C1C1C(=O)C=CC(=O)C12 (stereo not drawn) | – | 32.3 µM | – | > 81.7 µM | – | > 100 µM | – | > 100 µM | – | > 100 µM | – | > 100 | – | > 100 µM | – | 53.4 µM | – | > 100 | – | > 100
5 | CCC(C)C(=O)OCC(=O)c1ccc(-c2ccccc2)cc1 (stereo not drawn) | – | > 100 µM | – | > 100 µM | – | > 100 µM | – | – | – | > 100 µM | – | > 100 | – | 72.6 µM | – | > 100 µM | – | > 100 | – | > 100
6 | CC(=O)/C=C/c1ccc(OCc2ccc(Cl)cc2)cc1 | 136 µM | > 1000 µM | 718 | > 1000 µM | 577 µM | > 1000 µM | 648 | > 1000 µM | 556 µM | > 1000 µM | > 1000 µM | > 1000 | 140 | 395 µM | 228 | > 1000 µM | > 1000 µM | > 1000 | 405 µM | > 1000
7 | O=[N+]([O-])c1cc([N+](=O)[O-])c(Cl)cc1Cl | 1.69 µM | 3.1 µM | 1.71 | 3.21 µM | 0.217 µM | 0.505 µM | 1.81 | 3.23 µM | 0.34 µM | 1.48 µM | 1.64 µM | 3.27 | 1.79 | 3.68 µM | 1.61 | 3.22 µM | 1.95 µM | 3.66 | 0.456 µM | 2.7
8 | O=C1c2cccnc2C(=O)c2c1c(C(=O)OCCCN1CCCCC1)c1ccccn21 | 0.108 µM | 2.78 µM | < 0.01 | < 0.01 µM | 0.0706 µM | – | 0.28 | 2 µM | < 0.01 µM | < 0.01 µM | < 0.01 µM | < 0.0182 | < 0.0143 | 0.0466 µM | 0.0142 | 0.0417 µM | < 0.01 µM | 1.83 | 0.122 µM | 7.5
9 | CN(CCCCCl)P(=O)(OCc1ccc([N+](=O)[O-])o1)OCC1OC(n2cnc([N+](=O)[O-])c2N)C(O)C1O (stereo not drawn) | > 100 µM | > 100 µM | > 100 | > 100 µM | > 100 µM | > 100 µM | > 100 | > 100 µM | > 100 µM | > 100 µM | > 100 µM | > 100 | 37 | > 100 µM | > 100 | > 100 µM | > 100 µM | > 100 | > 100 µM | > 100
10 | CC1OC(CC(=O)O)CC2=C1C(=O)c1c(O)cccc1C2=O (stereo not drawn) | – | 0.361 µM | – | 0.336 µM | – | 0.0957 µM | – | 0.742 µM | – | 1.07 µM | – | 7.96 | – | 1.15 µM | – | 0.283 µM | – | 2.98 | – | 0.0582
11 | CCCCOC1OC(COC(=O)C(C)C)C(OC(=O)C(C)C)C(O)C1OC1OC(C)C(OC(=O)CCC)C(OC(=O)C(C)C)C1O (stereo not drawn) | 22.1 µM | 37.7 µM | 14 | 26.9 µM | 10.8 µM | 24.1 µM | 15.1 | 30.4 µM | 16.8 µM | 32.2 µM | 13.6 µM | 26.5 | 13.6 | 26.5 µM | 14.5 | 27.6 µM | 16.5 µM | 31.3 | 18.1 µM | 42.9
12 | CCc1nc(N)nc(N)c1-c1ccc(Cl)c(N=[N+]=[N-])c1 | 6.14 µM and 15.2 µM | 48.8 µM and 77.7 µM | – | > 77.8 µM and 45.2 µM | 0.898 µM and 3.89 µM | 31.9 µM and > 71.9 µM | – | 97.7 µM and > 100 µM | 5.8 µM and 14.6 µM | 88 µM and > 100 µM | 0.58 µM and 1.68 µM | > 100 | – | 19.1 µM and 18.2 µM | – | 36.7 µM and > 83.7 µM | 5.09 µM and 19.5 µM | > 100 | 0.4 µM and 2.14 µM | –
13 | NC1(Cc2ccc(Cl)cc2)CCN(c2ncnc3[nH]ccc23)CC1 | 3.45 µM | 16.3 µM | 2.68 | 17 µM | 3.05 µM | 24 µM | 17.6 | 60.5 µM | 1.54 µM | 13 µM | 5.02 µM | 21.6 | 14.9 | 28.2 µM | 4.67 | 18.1 µM | 5.33 µM | 21.3 | 3.39 µM | 17.6
